Experimental data as given in patent publication US20210386367A1, “DEVICES AND SYSTEMS FOR GASTROINTESTINAL MICROBIOME DETECTION AND MANIPULATION” (Progenity, Inc., priority 2018, published 2021).
In brackets after ≈: the same amount, converted by molar mass.

Key:
Type in all cases: cell-based
Enterobacter aerogenes = assay: Broth microdilution MIC, 50 clinical isolates
Procedure, shortened: (§1)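 Medium: cation-adjusted MHB, plus 3% lysed horse blood for streptococci, which were incubated with CO2 planchets. Final inoculum approx. 5×10^5 CFU/mL; serial two-fold drug dilutions per CLSI.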

Proteus mirabilis = assay: Broth microdilution MIC, 50 clinical isolates
Procedure, shortened: as §1

Pseudomonas aeruginosa = assay: Broth microdilution MIC, 50 clinical isolates
Procedure, shortened: as §1

Klebsiella spp. = assay: Broth microdilution MIC, 50 clinical isolates (20 K. oxytoca, 30 K. pneumoniae)
Procedure: Minimal inhibitory concentration (MIC) values were determined by broth microdilution or agar dilution in accordance with guidelines from the Clinical and Laboratory Standards Institute (CLSI; (1) “Methods for Dilution Antimicrobial Susceptibility Tests for Bacteria That Grow Aerobically; Approved Standard; 11th ed.” CLSI standard M07-A11, 2018; (2) “Performance Standards for Antimicrobial Susceptibility Testing; Twenty-Eighth Informational Supplement,” CLSI document M100-S28, 2018; and (3) “Methods for Antimicrobial Susceptibility Testing of Anaerobic Bacteria; Approved Standard—Eighth Edition,” CLSI document M11-A8, 2012).
Tested aerobically by broth microdilution: • Escherichia coli, n=50 • Klebsiella spp., n=50 • Pseudomonas aeruginosa, n=50 • Streptococcus spp., n=50 • Staphylococcus aureus, n=50 • Enterococcus faecalis, n=50 • Enterobacter aerogenes, n=50 • Proteus mirabilis, n=50
Broth microdilution testing of aerobic bacteria was conducted in cation-adjusted Mueller Hinton broth (MHBII). For testing streptococci, lysed horse blood (LHB) was added to MHBII broth at a final concentration of 3%. Where LHB was used, it was added after filtering.
Broth microdilution susceptibility testing in 96-well microplates was conducted in accordance with CLSI methods (1) and (2). Automated liquid handlers were used to conduct serial dilutions and liquid transfers, including the Multidrop 384 (Labsystems, Helsinki, Finland), Biomek 2000, and the Biomek FX (Beckman Coulter, Fullerton, Calif.). All wells in columns 2 through 12 of a standard 96-well microdilution plate (Costar 3795) were filled with 150 μL of the appropriate diluent. Then, 300 μL of the test agents were added to the wells of column 1 of the plates at 100× the highest final concentration to be tested. Serial two-fold dilutions were made across the rows through column 11 using the Biomek 2000. The wells of column 12 contained no drug and served as the growth control wells. This plate served as the “mother plate” from which MIC assay plates or “daughter plates” were made.
The daughter plates were loaded with 190 μL per well of the appropriate medium using the Multidrop 384. The daughter plates were created using the Biomek FX which transferred 2 μL of drug solution from each well of a mother plate to each corresponding well of the daughter plate in a single step. A standardized inoculum of each test organism was prepared per CLSI methods (1) to equal a 0.5 McFarland standard, followed by a dilution of 1:20 for aerobes and 1:10 for anaerobes. The plates were then inoculated with 10 μL of the diluted inoculum using the Biomek 2000 from low to high drug concentration, resulting in a final concentration of approximately 5×10^5 CFU/mL per well. An un-inoculated plate was incubated in parallel for each medium for the purpose of assessing solubility of the drug in the test media.
Inoculated plates were stacked 3 or 4 high, covered with a sterile lid on the top plate, placed into boxes with CO2 planchets (streptococci) or plastic bags (all other isolates). Plates were incubated at 35° C. for 16-24 hr in ambient air for aerobes or for 42-48 hr in the anaerobic environment of the Bactron II anaerobe chamber (Sheldon Manufacturing Co.; Cornelius, Oreg.). Following incubation, the microplates were removed from the incubator and viewed from the bottom using a plate viewer. The MIC values were read and recorded as the lowest concentration of drug that inhibited visible growth of the organism as per CLSI methods (1) and (2).

Question: `COc1c(N2C[C@@H]3CCCN[C@@H]3C2)c(F)cc2c(=O)c(C(=O)O)cn(C3CC3)c12` [moxifloxacin] was tested. Which MIC range (Enterobacter aerogenes) did it give?
Answer: The MIC range was 0.03 to 0.5 µg/mL.

Question: What about the Mode (Enterobacter aerogenes) of the same compound?
Answer: The Mode was 0.12 µg/mL.

Question: What about the “Cumulative percentage of isolates inhibited at MIC” value (Enterobacter aerogenes; 0.03 μg/mL) of the same compound?
Answer: Its value is 10.0%.

Question: And the “Number of test isolates at MIC” value (Enterobacter aerogenes; 0.03 μg/mL)?
Answer: Its value is 5.

Question: What about the “Cumulative percentage of isolates inhibited at MIC” value (Enterobacter aerogenes; 0.06 μg/mL) of the same compound?
Answer: The value was 50.0%.

Question: What about the “Number of test isolates at MIC” value (Enterobacter aerogenes; 0.06 μg/mL) of the same compound?
Answer: Its value is 20.

Question: And the “Cumulative percentage of isolates inhibited at MIC” value (Enterobacter aerogenes; 0.5 μg/mL)?
Answer: The value was 100.0%.

Question: What about the “Number of test isolates at MIC” value (Enterobacter aerogenes; 0.5 μg/mL) of the same compound?
Answer: Its value is 2.

Question: What about the MIC50 (Enterobacter aerogenes; Klebsiella aerogenes, read-out: MIC50) of the same compound?
Answer: The MIC50 was 0.06 µg/mL (≈ 0.149 µM).

Question: What about the MIC90 (Enterobacter aerogenes; Klebsiella aerogenes, read-out: MIC90) of the same compound?
Answer: Its MIC90 is 0.12 µg/mL (≈ 0.299 µM).

Question: What about the Mode (Proteus mirabilis) of the same compound?
Answer: The Mode was 0.25 µg/mL.

Question: And the “Cumulative percentage of isolates inhibited at MIC” value (Proteus mirabilis; 0.5 μg/mL)?
Answer: The value was 60.0%.

Question: And the “Number of test isolates at MIC” value (Proteus mirabilis; 0.5 μg/mL)?
Answer: The value was 9.

Question: What about the “Cumulative percentage of isolates inhibited at MIC” value (Proteus mirabilis; 1 μg/mL) of the same compound?
Answer: Its value is 64.0%.

Question: What about the “Number of test isolates at MIC” value (Proteus mirabilis; 1 μg/mL) of the same compound?
Answer: The value was 2.

Question: What about the “Cumulative percentage of isolates inhibited at MIC” value (Proteus mirabilis; 4 μg/mL) of the same compound?
Answer: The value was 66.0%.

Question: And the “Number of test isolates at MIC” value (Proteus mirabilis; 4 μg/mL)?
Answer: Its value is 1.

Question: What about the “Cumulative percentage of isolates inhibited at MIC” value (Proteus mirabilis; 8 μg/mL) of the same compound?
Answer: The value was 68.0%.

Question: And the “Number of test isolates at MIC” value (Proteus mirabilis; 8 μg/mL)?
Answer: Its value is 1.

Question: And the “Cumulative percentage of isolates inhibited at MIC” value (Proteus mirabilis; 16 μg/mL)?
Answer: The value was 72.0%.

Question: And the “Number of test isolates at MIC” value (Proteus mirabilis; 16 μg/mL)?
Answer: Its value is 2.

Question: And the “Cumulative percentage of isolates inhibited at MIC” value (Proteus mirabilis; 32 μg/mL)?
Answer: The value was 82.0%.

Question: And the “Number of test isolates at MIC” value (Proteus mirabilis; 32 μg/mL)?
Answer: The value was 5.

Question: And the “Cumulative percentage of isolates inhibited at MIC” value (Proteus mirabilis; 64 μg/mL)?
Answer: Its value is 90.0%.

Question: And the “Number of test isolates at MIC” value (Proteus mirabilis; 64 μg/mL)?
Answer: Its value is 4.

Question: And the “Cumulative percentage of isolates inhibited at MIC” value (Proteus mirabilis; 128 μg/mL)?
Answer: The value was 98.0%.

Question: What about the “Number of test isolates at MIC” value (Proteus mirabilis; 128 μg/mL) of the same compound?
Answer: Its value is 4.

Question: And the “Cumulative percentage of isolates inhibited at MIC” value (Proteus mirabilis; >128 μg/mL)?
Answer: Its value is 100.0%.

Question: What about the “Number of test isolates at MIC” value (Proteus mirabilis; >128 μg/mL) of the same compound?
Answer: Its value is 1.

Question: And the MIC50 (Proteus mirabilis; Proteus mirabilis, read-out: MIC50)?
Answer: Its MIC50 is 0.5 µg/mL (≈ 1.25 µM).

Question: And the MIC90 (Proteus mirabilis; Proteus mirabilis, read-out: MIC90)?
Answer: Its MIC90 is 64 µg/mL (≈ 159 µM).

Question: And the MIC range (Pseudomonas aeruginosa)?
Answer: Its MIC range is 0.12-32 ^ μg/mL.

Question: And the Mode (Pseudomonas aeruginosa)?
Answer: The Mode was 1 µg/mL.

Question: And the “Cumulative percentage of isolates inhibited at MIC” value (Pseudomonas aeruginosa; 0.5 μg/mL)?
Answer: The value was 20.0%.

Question: And the “Number of test isolates at MIC” value (Pseudomonas aeruginosa; 0.5 μg/mL)?
Answer: Its value is 8.

Question: And the “Cumulative percentage of isolates inhibited at MIC” value (Pseudomonas aeruginosa; 1 μg/mL)?
Answer: Its value is 58.0%.

Question: What about the “Number of test isolates at MIC” value (Pseudomonas aeruginosa; 1 μg/mL) of the same compound?
Answer: Its value is 19.

Question: And the “Cumulative percentage of isolates inhibited at MIC” value (Pseudomonas aeruginosa; 2 μg/mL)?
Answer: The value was 60.0%.

Question: And the “Number of test isolates at MIC” value (Pseudomonas aeruginosa; 2 μg/mL)?
Answer: The value was 1.

Question: And the “Cumulative percentage of isolates inhibited at MIC” value (Pseudomonas aeruginosa; 4 μg/mL)?
Answer: The value was 66.0%.

Question: What about the “Number of test isolates at MIC” value (Pseudomonas aeruginosa; 4 μg/mL) of the same compound?
Answer: Its value is 3.

Question: And the “Cumulative percentage of isolates inhibited at MIC” value (Pseudomonas aeruginosa; 8 μg/mL)?
Answer: Its value is 78.0%.

Question: What about the “Number of test isolates at MIC” value (Pseudomonas aeruginosa; 8 μg/mL) of the same compound?
Answer: Its value is 6.

Question: What about the “Cumulative percentage of isolates inhibited at MIC” value (Pseudomonas aeruginosa; 16 μg/mL) of the same compound?
Answer: The value was 90.0%.

Question: And the “Number of test isolates at MIC” value (Pseudomonas aeruginosa; 16 μg/mL)?
Answer: Its value is 6.

Question: What about the “Cumulative percentage of isolates inhibited at MIC” value (Pseudomonas aeruginosa; 32 μg/mL) of the same compound?
Answer: The value was 100.0%.

Question: And the “Number of test isolates at MIC” value (Pseudomonas aeruginosa; 32 μg/mL)?
Answer: Its value is 5.

Question: And the MIC50 (Pseudomonas aeruginosa; Pseudomonas aeruginosa, read-out: MIC50)?
Answer: Its MIC50 is 1 µg/mL (≈ 2.49 µM).

Question: And the MIC90 (Pseudomonas aeruginosa; Pseudomonas aeruginosa, read-out: MIC90)?
Answer: The MIC90 was 16 µg/mL (≈ 39.9 µM).

Question: And the “Number of test isolates at MIC” value (Pseudomonas aeruginosa; […])?
Answer: Its value is 1.

Question: What about the MIC range (Klebsiella spp.) of the same compound?
Answer: Its MIC range is 0.015 to 128 µg/mL.

Question: What about the Mode (Klebsiella spp.) of the same compound?
Answer: Its Mode is 0.06 µg/mL.

Question: What about the “Cumulative percentage of isolates at MIC” value (Klebsiella spp.; 0.015 μg/mL) of the same compound?
Answer: The value was 2.0%.

Question: What about the “Number of test isolates at MIC” value (Klebsiella spp.; 0.015 μg/mL) of the same compound?
Answer: The value was 1.

Question: What about the “Cumulative percentage of isolates at MIC” value (Klebsiella spp.; 0.03 μg/mL) of the same compound?
Answer: The value was 8.0%.

Question: And the “Number of test isolates at MIC” value (Klebsiella spp.; 0.03 μg/mL)?
Answer: Its value is 3.

Question: What about the “Cumulative percentage of isolates at MIC” value (Klebsiella spp.; 0.06 μg/mL) of the same compound?
Answer: The value was 56.0%.

Question: And the “Number of test isolates at MIC” value (Klebsiella spp.; 0.06 μg/mL)?
Answer: Its value is 24.

Question: And the “Cumulative percentage of isolates at MIC” value (Klebsiella spp.; 0.5 μg/mL)?
Answer: The value was 77.0%.

Question: What about the “Number of test isolates at MIC” value (Klebsiella spp.; 0.5 μg/mL) of the same compound?
Answer: Its value is 2.

Question: What about the “Cumulative percentage of isolates at MIC” value (Klebsiella spp.; 1 μg/mL) of the same compound?
Answer: Its value is 74.0%.

Question: What about the “Number of test isolates at MIC” value (Klebsiella spp.; 1 μg/mL) of the same compound?
Answer: The value was 1.

Question: And the “Cumulative percentage of isolates at MIC” value (Klebsiella spp.; 2 μg/mL)?
Answer: The value was 80.0%.

Question: And the “Number of test isolates at MIC” value (Klebsiella spp.; 2 μg/mL)?
Answer: The value was 3.

Question: And the “Cumulative percentage of isolates at MIC” value (Klebsiella spp.; 4 μg/mL)?
Answer: The value was 84.0%.

Question: What about the “Number of test isolates at MIC” value (Klebsiella spp.; 4 μg/mL) of the same compound?
Answer: The value was 2.

Question: What about the “Cumulative percentage of isolates at MIC” value (Klebsiella spp.; 16 μg/mL) of the same compound?
Answer: Its value is 88.0%.

Question: What about the “Number of test isolates at MIC” value (Klebsiella spp.; 16 μg/mL) of the same compound?
Answer: Its value is 2.

Question: What about the “Cumulative percentage of isolates at MIC” value (Klebsiella spp.; 32 μg/mL) of the same compound?
Answer: The value was 94.0%.

Question: And the “Number of test isolates at MIC” value (Klebsiella spp.; 32 μg/mL)?
Answer: The value was 3.

Question: What about the “Cumulative percentage of isolates at MIC” value (Klebsiella spp.; 64 μg/mL) of the same compound?
Answer: Its value is 96.0%.

Question: What about the “Number of test isolates at MIC” value (Klebsiella spp.; 64 μg/mL) of the same compound?
Answer: Its value is 1.

Question: And the “Cumulative percentage of isolates at MIC” value (Klebsiella spp.; 128 μg/mL)?
Answer: The value was 100.0%.

Question: And the “Number of test isolates at MIC” value (Klebsiella spp.; 128 μg/mL)?
Answer: The value was 2.

Question: What about the MIC50 (Klebsiella spp.; Klebsiella, read-out: MIC50) of the same compound?
Answer: The MIC50 was 0.06 µg/mL (≈ 0.149 µM).

Question: What about the MIC90 (Klebsiella spp.; Klebsiella, read-out: MIC90) of the same compound?
Answer: Its MIC90 is 32 µg/mL (≈ 79.7 µM).
